Test results as given in patent US9284292B2, “Sialochimeric compounds” (THERAPICON S.R.L., priority 2009, dated 2016).

Legend:
[1] = test system: influenza virus A/H1N1 (A/New Caledonia/20/99); assay: organism not typed; type: cell-based, influenza virus type A; settings: MDCK, 72 h, read-out: EC50 vs A/H1N1
[2] = test system: influenza virus A/H3N2 (A/Panama/2007/99); assay: organism not typed; type: cell-based, influenza virus type A; settings: MDCK, 72 h, read-out: EC50 vs A/H3N2
[3] = test system: influenza virus B (B/Parma/1/07); assay: microbe, parasite or virus in culture; type: cell-based; settings: study I; for EC50: 72 h, MDCK cells, 50% plaque reduction vs control, 3 days
[4] = test system: influenza virus A/H1N1 (A/New Caledonia/20/1999); type: cell-based, influenza virus type A
[5] = in vivo; cited from earlier work

Structure (SMILES)	EC50 [1] [µM]	EC50 [2] [µM]	EC50 [3] [µM]	antiviral activity versus virus type A relative to virus type B ([3]; higher versus type A than type B) [folds]	EC50 [4] [µM]	absorbed by oral route [5]
CCOC(=O)C1=CC(OC(CC)CC)C(NC(C)=O)C(NC2(C(=O)O)CC(O)C(NC(C)=O)C(CNC34CC5CC(CC(C5)C3)C4)O2)C1 (stereo not drawn) [THE 08/01, Amantadine-C7-Neu5Ac—C16H28N2O4]	9.9	15.4	126	10	16	
CC(=O)NC1C(O)CC(NC(=N)NC2C=C(C(=O)O)OC(C(O)C(O)CO)C2NC(C)=O)(C(=O)O)OC1CNC12CC3CC(CC(C3)C1)C2 (stereo not drawn) [THE 10/01, Amantadine-C7-Neu5Ac—C12H20N4O7]	11.7	18.3	99.5			
CC(=O)N[C@H]1[C@H]([C@H](O)[C@H](O)CO)OC(C(=O)O)=C[C@@H]1N=C(N)N [zanamivir]						about 2%
